EC50 and CC50 data for 54 compounds are collected here from ChEMBL document CHEMBL1156829 (Proc Natl Acad Sci U S A, 2008).

Series [1] relates to Plasmodium falciparum. As to the kind of experiment: NOVARTIS: Inhibition of Plasmodium falciparum W2 (drug-resistant) proliferation in erythrocyte-based infection assay. The series is classed as functional, organism-based. To be noted: Plasmodium falciparum, W2; read-out: EC50.
A short description of series [2]: NOVARTIS: Cytotoxicity against human hepatocellular carcinoma cell line (Huh7). The series is classed as toxicity, cell-based, Huh-7. As to conditions: Huh7 cells (hepatocellular carcinoma cell line).
In series [3] the test system is Plasmodium falciparum. The series is described as follows: NOVARTIS: Inhibition of Plasmodium falciparum 3D7 (drug-susceptible) proliferation in erythrocyte-based infection assay. To be noted: Plasmodium falciparum, 3D7. The series is classed as functional, organism-based.

As to `COc1cc(Nc2cncc(-c3ccc(C(N)=O)cc3)n2)cc(OC)c1OC`, the EC50 (as a rule, the concentration at which the effect is half-maximal) came to 50.1 nM in the series on Plasmodium falciparum [1] and 29.5 nM in the series with Plasmodium falciparum [3]. Besides, the CC50 (as a rule, the concentration that lowers cell viability or growth by half) in series [2] stood at 25300 nM.
Consider `CCC(CO)NCC(O)Cn1c2ccc(Cl)cc2c2cc(Cl)ccc21` (configuration not stated), for which the EC50 with Plasmodium falciparum [1] is 40.6 nM; in the series on Plasmodium falciparum [3], 368 nM. Moreover, in series [2], the CC50 is 20100 nM.
On the same counts, the results for `C[n+]1ccc(C=Cc2ccc(Br)cc2)cc1` are 205 nM, 638 nM and > 100000 nM.
With `CCc1c(C#N)c(N)nc(SCC(=O)c2ccc(C)cc2C)c1C#N`, the figures for the EC50 in the series on Plasmodium falciparum [1] and with Plasmodium falciparum [3] were 196 nM and 308 nM, respectively. For the same compound, the CC50 in series [2] was > 100000 nM.
On the same counts, the results for `NC1=NC(c2ccccc2)N(c2ccccc2)C(N)=N1` (configuration not stated) are 204 nM, 82.3 nM and > 100000 nM.
As for `CN(C)CCCNc1ncnc2c1[nH]c1ccc(Cl)cc12`, the values for the EC50 in the series on Plasmodium falciparum [1] and with Plasmodium falciparum [3] were 43.7 nM and 26.1 nM, respectively. The CC50 in series [2] stood at 20700 nM.
As for `OC(CNC1CCCCC1)Cn1c2ccc(Cl)cc2c2cc(Cl)ccc21` (configuration not stated), the EC50 in the series on Plasmodium falciparum [1] came out at 116 nM; in the series with Plasmodium falciparum [3], 333 nM. For the same compound, the CC50 in series [2] worked out at 57300 nM.
On the same counts, the results for `Cc1ccc(-c2c[n+](Cc3ccc(Cl)cc3)c3n2CCC3)cc1` are 153 nM, 373 nM and > 75700 nM.
On the same counts, the results for `CC(=O)NCCc1nc2ccccc2n1Cc1ccc(C(C)C)cc1` are 98.1 nM, 764 nM and 48700 nM.
On the same counts, the results for `O=C(Nc1c(C(=O)Nc2cccc(Cl)c2)oc2ccccc12)c1cc(-c2ccccc2O)n[nH]1` are 74.2 nM, 272 nM and 35100 nM.
In the case of `CC(=NNC(=O)c1ccc(C)cc1)c1ccccn1`, the EC50 with Plasmodium falciparum [1] was 209 nM; with Plasmodium falciparum [3] it was 350 nM. Further, in series [2], the CC50 is > 100000 nM.
On the same counts, the results for `c1ccc(CCc2nc3cccnc3n2C2CCN(C3CCN(Cc4ccccc4)CC3)CC2)cc1` are 175 nM, 153 nM and 81400 nM.
On the same counts, the results for `COc1ccc(-c2c[n+](CC(=O)c3ccc(C)cc3)c3n2CCC3)cc1` are 200 nM, 745 nM and > 100000 nM.
Regarding `Cc1ccc(-n2c(SCc3ccc(F)cc3)nnc2C(Cc2ccccc2)NC(=O)NC(C)(C)C)cc1` (configuration not stated), the EC50 in the series on Plasmodium falciparum [1] worked out at 125 nM; in the series on Plasmodium falciparum [3], 330 nM. For the same compound, in series [2], the CC50 was > 62300 nM.
On the same counts, the results for `CCn1c2ccccc2[n+]2c(C)cc(C)nc12` are 199 nM, 266 nM and > 100000 nM.
On the same counts, the results for `CCCOC(=O)C1=C(C)NC2=C(C(=O)CC(c3ccc(Cl)cc3)C2)C1c1ccc(Br)cc1` (configuration not stated) are 198 nM, 498 nM and > 100000 nM.
For the compound `CSCCC(C(=O)NCC(=O)O)N1C(=O)c2cc(NC(C)=O)ccc2NC(=O)[C@@H]1c1ccccc1` (some centres not stated), the EC50 is 15.3 nM in the series on Plasmodium falciparum [1] and > 1250 nM with Plasmodium falciparum [3]. For the same compound, the CC50 in series [2] is > 7760 nM.
As for `CCCCCC(=O)Oc1ccccc1-c1nc2ccccn2c1NC(C)(C)CC(C)(C)C`, the EC50 with Plasmodium falciparum [1] was 19.5 nM; in the series on Plasmodium falciparum [3] it was 701 nM. Also, the CC50 in series [2] is > 10000 nM.
In the case of `O=c1c(-c2ccc(Cl)cc2Cl)c(C(F)(F)F)oc2c(CN3CCCCC3)c(O)ccc12`, the EC50 was found to be 198 nM in the series on Plasmodium falciparum [1] and 994 nM in the series with Plasmodium falciparum [3]. For the same compound, the CC50 in series [2] is > 100000 nM.
On the same counts, the results for `COCCNC(=O)CN1C(=O)CC(C)(C)Sc2ccccc21` are > 19.8 nM, > 1250 nM and > 10000 nM.
`CCOc1ccc(Nc2cc(C)nc3ccc(OCC)cc23)cc1`: the results for the EC50 with Plasmodium falciparum [1] and in the series on Plasmodium falciparum [3] were 20.3 nM and > 1250 nM, respectively. Also, the CC50 in series [2] is > 10000 nM.
On the same counts, the results for `Cc1ccnc(NC(c2ccc(Cl)cc2Cl)c2ccc3cccnc3c2O)c1` (configuration not stated) are 120 nM, 296 nM and 60100 nM.
On the same counts, the results for `CCOC(=O)c1cnc2ccc(OCC)cc2c1NCCCN(CC)CC` are 140 nM, 117 nM and 70100 nM.
On the same counts, the results for `CCOC(=O)C1(Cc2ccc(OC)cc2)CCN(C(=O)c2scc3c2OCCO3)CC1` are 199 nM, 264 nM and > 100000 nM.
In the case of `O=c1c2ccccc2[nH]c2ccc(F)cc12`, the EC50 in the series with Plasmodium falciparum [1] was 208 nM; in the series with Plasmodium falciparum [3], 186 nM. Further, the CC50 in series [2] was > 100000 nM.
On the same counts, the results for `CCC(=O)NC(c1ccccc1Cl)c1cc(Cl)c2cccnc2c1O` (configuration not stated) are 73.6 nM, 232 nM and 35400 nM.
On the same counts, the results for `Cc1cc(N2CCN(C3CCCCC3)CC2)n2c(nc3ccccc32)c1C#N` are 203 nM, 63.5 nM and > 100000 nM.
With `CN(CCCNc1ccnc2cc(Cl)ccc12)C(=O)CSc1ccccc1`, the EC50 in the series with Plasmodium falciparum [1] came out at 20.3 nM; in the series with Plasmodium falciparum [3] it was 7.17 nM. In addition, the CC50 in series [2] is > 10000 nM.
On the same counts, the results for `Nc1cc(C(=O)Nc2ccc(C3=NCCN3)cc2)ccc1C(=O)Nc1ccc(C2=NCCN2)cc1` are 179 nM, 290 nM and 90600 nM.
On the same counts, the results for `CCN(CC)CCCNc1ccnc2cc3ccccc3cc12` are 51.8 nM, 33.8 nM and 26200 nM.
On to `COc1cc(-c2nc(-c3ccc(C)c(C)c3)c(-c3ccc(C)c(C)c3)[nH]2)cc(OC)c1O`, for which the EC50 stood at 132 nM with Plasmodium falciparum [1] and 93 nM with Plasmodium falciparum [3]. In addition, in series [2], the midpoint of cytotoxicity, the CC50, lay at 61200 nM.
On the same counts, the results for `C=CC1CN2CCC1CC2C(OC(C)=O)c1ccnc2ccc(OC)cc12` (configuration not stated) are 213 nM, 240 nM and > 100000 nM.
On the same counts, the results for `Cc1cc(Nc2cccc([N+](=O)[O-])c2)nc2cc(O)ccc12` are 75.1 nM, 672 nM and 36300 nM.
On the same counts, the results for `Cc1ccc(NC(c2ccccc2)(c2ccccc2)c2ccccc2)cc1C` are 207 nM, 439 nM and > 100000 nM.
With `CC(=NNc1nc(-c2ccccc2O)nc2ccccc12)c1ccccc1O`, the EC50 with Plasmodium falciparum [1] worked out at 206 nM; in the series with Plasmodium falciparum [3] it was 742 nM. The CC50 in series [2] is > 100000 nM.
On the same counts, the results for `COC(=O)C1=C(C)NC2=C(C(=O)CC(c3ccccc3)C2)C1c1cc(C)sc1SC` (configuration not stated) are 205 nM, 671 nM and > 100000 nM.
Take `COc1cccc(C(NC(=O)c2ccccc2)c2ccc3cccnc3c2O)c1` (configuration not stated): the EC50 is 216 nM in the series on Plasmodium falciparum [1] and 134 nM with Plasmodium falciparum [3]. In addition, the CC50 in series [2] was > 100000 nM.
On the same counts, the results for `CC(=O)N(C1=C(N2CCCCC2)C(=O)c2ccccc2C1=O)c1ccc(F)c(F)c1` are 94.7 nM, 238 nM and 47700 nM.
As for `COC(=O)c1ccc(N(C(=O)Cc2c[nH]c3ccccc23)C(C(=O)NC2CCCCC2)c2ccccc2F)cc1` (configuration not stated), the EC50 in the series on Plasmodium falciparum [1] was determined as 197 nM; in the series with Plasmodium falciparum [3], 200 nM. Besides, in series [2], the CC50 is > 100000 nM.
On the same counts, the results for `Cc1ccn2c(NC(C)(C)CC(C)(C)C)c(-c3ccccc3OC(=O)Cc3ccccc3)nc2c1` are 21.6 nM, 926 nM and > 10000 nM.
On the same counts, the results for `Cc1ccn2c(NC(C)(C)CC(C)(C)C)c(-c3ccccc3OC(=O)c3ccc(C(F)(F)F)cc3)nc2c1` are 19.9 nM, 847 nM and > 10000 nM.
On the same counts, the results for `COc1ccc(C2CC(=O)C3=C(C2)NC(C)=C(C(=O)OC(C)C)C3c2cccc(Cl)c2)cc1OC` (configuration not stated) are 31.8 nM, 71.3 nM and 16000 nM.
In the case of `c1ccc(-c2nn(-c3ccccc3)[n+](-c3ccccc3)n2)cc1`, the figures for the EC50 in the series on Plasmodium falciparum [1] and with Plasmodium falciparum [3] were 207 nM and 296 nM, respectively. For the same compound, the CC50 in series [2] was > 100000 nM.
On the same counts, the results for `Oc1ccc(-c2ccccc2)cc1CN1CCC(c2ccccc2)CC1` are 204 nM, 2420 nM and > 100000 nM.
On the same counts, the results for `N=c1c2c(n(Cc3ccc(F)cc3)c3c1CCC3)CCC2` are 202 nM, 266 nM and > 100000 nM.
On the same counts, the results for `CCOC(=O)c1ccc(Nc2nc(N)c3cc(OC)c(OC)cc3n2)cc1` are 200 nM, 482 nM and > 100000 nM.
In the case of `CCCc1nc2ccc(NC(=O)c3ccccc3F)cc2c(=O)n1Cc1ccc(-c2ccccc2)cc1`, the EC50 came to 217 nM in the series with Plasmodium falciparum [1] and 1080 nM in the series on Plasmodium falciparum [3]. Further, the CC50 in series [2] was > 100000 nM.
On to `COc1ccc(C2=C(Nc3ccc(Br)c(C)c3)c3ccccc3C2=O)cc1`, for which the EC50 in the series with Plasmodium falciparum [1] came to 202 nM; in the series with Plasmodium falciparum [3], 185 nM. Besides, the CC50 in series [2] is > 100000 nM.
On the same counts, the results for `COc1ccc(N=Nc2nc3ccc(Br)cc3n2C)cc1` are 199 nM, 197 nM and > 100000 nM.
On the same counts, the results for `OC(CN1CCN(Cc2ccccc2)CC1)Cn1c2ccc(Br)cc2c2cc(Br)ccc21` (configuration not stated) are 57.3 nM, 296 nM and 29000 nM.
On the same counts, the results for `CC(C)COc1nc(-c2ccccc2)n(S(=O)(=O)c2cccc3cccnc23)n1` are 4.56 nM, 42.3 nM and > 2160 nM.
For `Cc1ccn2c(NC(C)(C)CC(C)(C)C)c(-c3ccccc3OC(=O)c3ccc(Br)cc3)nc2c1`, the EC50 with Plasmodium falciparum [1] amounted to 148 nM; in the series with Plasmodium falciparum [3] it was 740 nM. The compound further gave a CC50 in series [2] of 75000 nM.
In the case of `NCC(=O)N1CCn2c(nc(-c3ccccc3)c2Nc2ccc3c(c2)OCO3)C1`, the concentration for a half-maximal effect (EC50) is 198 nM in the series on Plasmodium falciparum [1] and 162 nM with Plasmodium falciparum [3]. Further, the CC50 in series [2] is > 100000 nM.
Turning to `Cc1ccn2c(NC(C)(C)CC(C)(C)C)c(-c3ccccc3OC(=O)CCCCl)nc2c1`, the EC50 came out at 20.2 nM with Plasmodium falciparum [1] and 753 nM in the series with Plasmodium falciparum [3]. Also, the CC50 in series [2] is > 10000 nM.
